The target of series [1] is ABCC2 (MRP2; ATP-binding cassette sub-family C member 2) (Rattus norvegicus, UniProt Q63120). Nature of the series: TP_TRANSPORTER: inhibition of Fluo-3 secretion into apical vacuoles (Fluo-3: 1 uM, PSC 833: 50 uM) in WIF-B cells. It counts as functional, cell-based, WIF-B cell. The conditions noted are these: probe Fluo-3 (1 uM).
Series [2] addresses ATP-binding cassette sub-family C member 2 (Rattus norvegicus, UniProt Q63120). The series can be described thus: TP_TRANSPORTER: inhibition of Fluo-3 uptake (Fluo-3: 4.4 uM, PSC 833: 10 uM) in bile canalicular membrane vesicles from Wistar rat. It counts as functional, cell membranes, Bile canalicular membrane vesicle.
Substrate in series [3]: Cc1ccc(N(CC(=O)O)CC(=O)O)c(OCCOc2cc(-c3c4cc(Cl)c(=O)cc-4oc4cc(O)c(Cl)cc34)ccc2N(CC(=O)O)CC(=O)O)c1
The series can be described thus: TP_TRANSPORTER: uptake in bile canalicular membrane vesicles from Wistar/TR- rat. It counts as functional, cell membranes, Bile canalicular membrane vesicle.

With `C/C=C/C[C@@H](C)C(=O)[C@H]1C(=O)N[C@@H](C(C)C)C(=O)N(C)CC(=O)N(C)[C@@H](CC(C)C)C(=O)N[C@@H](C(C)C)C(=O)N(C)[C@@H](CC(C)C)C(=O)N[C@@H](C)C(=O)N[C@H](C)C(=O)N(C)[C@@H](CC(C)C)C(=O)N(C)[C@@H](CC(C)C)C(=O)N(C)[C@@H](C(C)C)C(=O)N1C` [VALSPODAR], the inhibition at 50 µM in series [1] amounted to 50%. The Activity result in series [2] is “is not an inhibitor [-]”.

B1: ATP-binding cassette sub-family C member 2 (Rattus norvegicus) (protein)
chain: MDKFCNSTFWDLSLLESPEADLPLCFEQTVLVWIPLGFLWLLAPWQLYSVYRSRTKRSSITKFYLAKQVFVVFLLILAAIDLSLALTEDTGQATVPPVRYTNPILYLCTWLLVLAVQHSRQWCVRKNSWFLSLFWILSVLCGVFQFQTLIRALLKDSKSNMAYSYLFFVSYGFQIVLLILTAFSGPSDSTQTPSVTASFLSSITFSWYDRTVLKGYKHPLTLEDVWDIDEGFKTRSVTSKFEAAMTKDLQKARQAFQRRLQKSQRKPEATLHGLNKKQSQSQDVLVLEEAKKKSEKTTKDYPKSWLIKSLFKTFHVVILKSFILKLIHDLLVFLNPQLLKLLIGFVKSSNSYVWFGYICAILMFAVTLIQSFCLQSYFQHCFVLGMCVRTTVMSSIYKKALTLSNLARKQYTIGETVNLMSVDSQKLMDATNYMQLVWSSVIQITLSIFFLWRELGPSILAGVGVMVLLIPVNGVLATKIRNIQVQNMKNKDKRLKIMNEILSGIKILKYFAWEPSFQEQVQGIRKKELKNLLRFGQLQSLLIFILQITPILVSVVTFSVYVLVDSANVLNAEKAFTSITLFNILRFPLSMLPMVTSSILQASVSVDRLERYLGGDDLDTSAIRRVSNFDKAVKFSEASFTWDPDLEATIQDVNLDIKPGQLVAVVGTVGSGKSSLVSAMLGEMENVHGHITIQGSTAYVPQQSWIQNGTIKDNILFGSEYNEKKYQQVLKACALLPDLEILPGGDMAEIGEKGINLSGGQKQRVSLARAAYQDADIYILDDPLSAVDAHVGKHIFNKVVGPNGLLAGKTRIFVTHGIHFLPQVDEIVVLGKGTILEKGSYRDLLDKKGVFARNWKTFMKHSGPEGEATVNNDSEAEDDDDGLIPTMEEIPEDAASLAMRRENSLRRTLSRSSRSSSRRGKSLKNSLKIKNVNVLKEKEKEVEGQKLIKKEFVETGKVKFSIYLKYLQAVGWWSILFIILFYGLNNVAFIGSNLWLSAWTSDSDNLNGTNNSSSHRDMRIGVFGALGLAQGICLLISTLWSIYACRNASKALHGQLLTNILRAPMRFFDTTPTGRIVNRFSGDISTVDDLLPQTLRSWMMCFFGIAGTLVMICMATPVFAIIIIPLSILYISVQVFYVATSRQLRRLDSVTKSPIYSHFSETVTGLPIIRAFEHQQRFLAWNEKQIDINQKCVFSWITSNRWLAIRLELVGNLVVFCSALLLVIYRKTLTGDVVGFVLSNALNITQTLNWLVRMTSEAETNIVAVERISEYINVENEAPWVTDKRPPADWPRHGEIQFNNYQVRYRPELDLVLKGITCNIKSGEKVGVVGRTGAGKSSLTNCLFRILESAGGQIIIDGIDVASIGLHDLRERLTIIPQDPILFSGSLRMNLDPFNKYSDEEVWRALELAHLRSFVSGLQLGLLSEVTEGGDNLSIGQRQLLCLGRAVLRKSKILVLDEATAAVDLETDSLIQTTIRKEFSQCTVITIAHRLHTIMDSDKIMVLDNGKIVEYGSPEELLSNRGSFYLMAKEAGIENVNHTEL
Turning to B1, the Km in series [3] was found to be 3.7 µM.

Broadly, the inhibition is how much of the control response was suppressed. Read a low inhibition as a weak effect. The Km is the substrate concentration at which the rate is half of its maximum.

For the origin of these results see ChEMBL document CHEMBL2074554, “Expression of the apical conjugate export pump, Mrp2, in the polarized hepatoma cell line, WIF-B” (Hepatology, 1998).
